Source: US20250138031A1, “IN VITRO MEASUREMENT OF THE LYSIS OF A FIBRIN CLOT” (DIAGNOSTICA STAGO, priority 2021, published 2025)
Entries after “also recorded” stand apart in the source; their conditions may differ.

How the values were obtained:
[1] = tested on: lysis of the fibrin clot in hemophilia-A plasma; assay: Coagulation-Lysis test in turbidimetry with intrinsic activators instead of FXIa; assay type: biochemical, human; details: all FVIII concentrations tested, 48 nM GEG, 290 nM silica, TF 0.5 pM
Protocol: The intrinsic activators in Stago reagents are ethylene glycol gallate at 23 mg/L (STA-Cephascreen) and silica at 20 g/L (STA-PTT analyzer).
As was done for the implementation of a viscoelastic method, turbidimetry tests were performed with a hemophilia-A patient from each group, overloaded with 0, 2, 20, 100% of Factor VIII (FVIII-Advate®). The coagulation reaction was initiated with ethylene glycol gallate (GEG) from 48 to 190 nM final test or with silica from 145 to 580 nM final test, without modifying the concentration of tissue factor which was kept at 0.5 pM final test for the two activators. These activators were added independently into the reagent under the same reference conditions as FXIa.
The aim is to determine the maximum difference in tolerance observed in parameters DOD t1, DOD t2, and TL, between FXIa and the intrinsic activators.

[2] = tested on: lysis of the fibrin clot in hemophilia-A plasma; assay: Coagulation-Lysis test (turbidimetric, DOD t1 750 sec / t2 1400 sec) on hemophilia-A plasmas; assay type: biochemical, human
Protocol: Dynamic measurement of the formation and degradation of the fibrin clot is carried out on a set of samples. The test, called the “Coagulation-Lysis” test, is a turbidimetric, automated, encompassing test for measuring the formation and lysis of the fibrin clot. For the analysis, the invention takes advantage of only the “lysis” part of the fibrin clot formation and lysis curve. The test is performed by mixing the plasma sample, undiluted, with an intermediate reagent containing a very low concentration of tissue factor (TF), phospholipids (PPL), plasminogen activator (tPA), and activator of the intrinsic pathway, preferably factor XIa (FXIa). After incubating the mixture, the calcium reagent triggers the generation of thrombin and the formation of the fibrin clot which quickly begins to be degraded by the tPA (tissue plasminogen activator).
According to one embodiment, TF (tissue factor), PPL (phospholipids), FXIa, and tPA (tissue plasminogen activator) are mixed at the following concentrations: 0.5 pM, 4 μM, 100 PM and 0.13 μg/mL final test.
The undiluted plasma sample, preferably 200 μL, is mixed with the intermediate reagent, preferably 50 μL.
Next is a step of incubating the mixture at 37° C. then adding the calcium ion-based triggering reagent to the mixture (FIG. 1), preferably 50 μL in 102 mM final reagent (17 mM final test), to initiate the thrombin generation and fibrin clot formation (FIG. 1).
Then, the change in optical density is read (FIG. 1) dynamically (every 2 seconds) at a single wavelength between 350 and 800 nm, preferably at 540 nm and preferably for a duration of 1986 seconds (33 minutes).
In the context of this experimental section, the parameters or steps which were specifically used or carried out to obtain the presented results are as follows: • a. TF (tissue factor) and PPL (phospholipids) are mixed with an activator of the intrinsic pathway, FXIa, and tPA (tissue plasminogen activator), at the following concentrations: 0.5 pM, 4 μM, 100 pM, and 0.13 μg/mL final test. • b. The mixture is incubated at 37° C. then the calcium ion-based triggering reagent is added to the mixture, 50 μL in 102 mM final reagent (17 mM final test), to initiate formation of the fibrin clot. • c. The change in optical density is read dynamically (every 2 seconds) at a single wavelength, at 540 nm and for a duration of 1986 seconds (33 minutes). • d. The database is composed of all the deltas of the optical density (DOD) at the different measurement times and for each of the method parameters (Tmax; T09D—90% of the max DOD; TL—50% of the max DOD—max DOD is a measure of optical density). • e. […] This database is used as a training database which is trained on at least 70% of the overloaded samples selected randomly, and as a test database for the remaining overloaded samples (30%), then as a validation database for the patient samples.
The classification group is determined using the two DOD (delta optical density) parameters. For the turbidimetric method used, the times are defined within the ranges of [700-900] sec for time t1 and [1100-1400] sec for time t2. Preferably, time t1 was defined at 750 sec and time t2 was defined at 1400 sec. More precisely, the results shown in the Figures were obtained with t1=750 sec and t2=1400 sec. These parameters were selected in accordance with the method for the optimal choice or verification of these parameters, explained in this description. […] The range for time t2 was defined in combination with the results obtained at time t1.
As we did for the implementation of a viscoelastic method, we carried out turbidimetry tests where a hemophilia-A patient from each group is overloaded with different concentrations of therapeutic molecules of interest.
We wanted to test this type of molecule (below and FIG. 24) at concentrations of 0, 3, 15, and 30 μg/mL (Nougier et al. 2020) compared to the reference FVIII treatment (Advate®) at 0, 2, 20, and 100%. […]

[3] = at 15 mg/kg; cited from earlier work
[4] = tested on: inhibitor (antibodies directed against FIX); assay: Residual titer of FIX after neutralization by the inhibitor in hemophilia-B plasma; assay type: biochemical, human; details: 40% Rixubis®, 30 minutes of incubation at 37° C.
Source text: For certain hemophilia patients, the presence of inhibitors justifies the use of emicizumab.

Molecule: O=C(OCCO)c1cc(O)c(O)c(O)c1 [GEG, ethylene glycol gallate]
- maximum deviation for parameters DOD t1, DOD t2 and TL compared to the reference method with FXIa ([1]; group 1): −9%
- maximum deviation for parameters DOD t1, DOD t2 and TL compared to the reference method with FXIa ([1]; group 2): +3%
- maximum deviation for parameters DOD t1, DOD t2 and TL compared to the reference method with FXIa ([1]; group 3): +8%

Molecule: NC[C@H]1CC[C@H](C(=O)O)CC1 [tranexamic acid]
- lysis kinetics of a fibrin clot ([2]; TXA (1 μg/mL, FIG. 7) in addition to maintenance therapy / missing factor FVIII, listed as TXA): becomes slower; also recorded: reducing lysis
- classification group after treatment adjustment ([2]; group 3 patients (shortened lysis time), TXA added, FIG. 7): move these patients into group 2
- DOD (delta optical density) at time t2 compared with DOD at time t1 ([2]; plasma concentration of 5 μg/mL of tranexamic acid in the sample): identical
- plasma concentration [3]: 2000 ng/mL

Molecule: FXIII: Factor XIII or Catridecacog (NovoThirteen® NovoNordisk), activated by thrombin, stabilizes the clot
- DOD t2 parameter ([2]; FXIII (NovoThirteen®) mainly in combination with FVIII, patients in the three groups): increases
- resistance to lysis ([2]; FXIII in combination with FVIII, patients from the three groups): increases the resistance to lysis
- change of classification group ([2]; hemophilia-A patient in group 3, 20% FVIII and 170% FXIII:Ag): moves from group 3 to group 2

Molecule: Rixubis®: FIX molecule (Takeda) used as replacement molecule for hemophilia B
- residual titer of FIX after neutralization ([4]; patient B14): 1%
- residual titer of FIX after neutralization ([4]; patient B15): 21%

B1: emicizumab: commercial bispecific antibody mimicking FVIII by forming a complex with activated Factor IX and Factor X (antibody, chains of the INN, looked up, V domains shown)
VH: QVQLVQSGSELKKPGASVKVSCKASGYTFTDNNMDWVRQAPGQGLEWMGDINTRSGGSIYNEEFQDRVIMTVDKSTDTAYMELSSLRSEDTATYHCARRKSYGYYLDEWGEGTLVTVSS
VL: DIQMTQSPSSLSASVGDRVTITCKASRNIERQLAWYQQKPGQAPELLIYQASRKESGVPDRFSGSRYGTDFTLTISSLQPEDIATYYCQQYSDPPLTFGGGTKVEIK
VH2: QVQLVESGGGLVQPGGSLRLSCAASGFTFSYYDIQWVRQAPGKGLEWVSSISPSGQSTYYRREVKGRFTISRDNSKNTLYLQMNSLRAEDTAVYYCARRTGREYGGGWYFDYWGQGTLVTVSS
VL2: DIQMTQSPSSLSASVGDRVTITCKASRNIERQLAWYQQKPGQAPELLIYQASRKESGVPDRFSGSRYGTDFTLTISSLQPEDIATYYCQQYSDPPLTFGGGTKVEIK
- classification of patient in group 2 versus group 3 ([2]; at 3 μg/mL emicizumab): overlap in classification
- change in the group of overloaded hemophiliacs ([2]; emicizumab overload 0, 3, 15, 30 μg/mL): No change
- change to DOD t1 ([2]; emicizumab overload 0, 3, 15, 30 μg/mL, regardless of the patient groups): little change
- DOD t2 ([2]; groups 1 and 2, up to 15 μg/mL of emicizumab): increased
- change in parameters DOD t1 and DOD t2 ([2]; patient in group 3, emicizumab overload): little change in parameters
- resistance to lysis ([2]; patients in groups 1 and 2, emicizumab overload): increasing the resistance to lysis
